Activity calls are given as the source filed them. No cut-off for these calls is given here.
What was measured:
[1] = Selectivity ratio for agonist activity at THRalpha LBD (unknown origin) transiently transfected in HEK293T cells to agonist activity at human NOR-1 LBD transiently transfected in HEK293T cells; format: cell-based
[2] = molecular target: Nuclear receptor subfamily 4 group A member 3 (Homo sapiens, UniProt Q92570); assay: Agonist activity at human NOR-1 LBD transiently transfected in HEK293T cells incubated for 16 hrs by Gal4-hybrid reporter gene based Dual-glo luciferase assay; format: cell-based
Sequence of Nuclear receptor subfamily 4 group A member 3 (Q92570 whole entry, the tested form may be a part): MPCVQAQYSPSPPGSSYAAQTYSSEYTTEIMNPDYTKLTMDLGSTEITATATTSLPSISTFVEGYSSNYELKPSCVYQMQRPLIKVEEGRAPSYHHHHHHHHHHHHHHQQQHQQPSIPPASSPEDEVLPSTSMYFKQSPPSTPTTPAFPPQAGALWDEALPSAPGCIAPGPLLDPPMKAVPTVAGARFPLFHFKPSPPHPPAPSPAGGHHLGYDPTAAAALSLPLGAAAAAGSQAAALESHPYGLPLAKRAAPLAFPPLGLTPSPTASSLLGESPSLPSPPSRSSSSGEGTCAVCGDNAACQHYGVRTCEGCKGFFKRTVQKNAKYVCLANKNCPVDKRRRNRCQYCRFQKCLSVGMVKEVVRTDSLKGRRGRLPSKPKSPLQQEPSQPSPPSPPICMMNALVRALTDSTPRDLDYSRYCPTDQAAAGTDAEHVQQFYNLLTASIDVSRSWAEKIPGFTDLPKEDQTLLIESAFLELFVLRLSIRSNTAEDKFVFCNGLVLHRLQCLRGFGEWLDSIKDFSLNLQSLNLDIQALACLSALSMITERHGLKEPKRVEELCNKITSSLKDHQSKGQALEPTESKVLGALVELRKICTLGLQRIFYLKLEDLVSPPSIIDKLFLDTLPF

[3] = Selectivity ratio for agonist activity at VDR LBD (unknown origin) transiently transfected in HEK293T cells to agonist activity at human Nur77 LBD transiently transfected in HEK293T cells; format: cell-based
[4] = Selectivity ratio for agonist activity at FXR LBD (unknown origin) transiently transfected in HEK293T cells to agonist activity at human Nur77 LBD transiently transfected in HEK293T cells; format: cell-based
[5] = molecular target: T1, Vitamin D3 receptor (Homo sapiens) (UniProt P11473); assay: Agonist activity at VDR LBD (unknown origin) transiently transfected in HEK293T cells at 1 uM incubated for 16 hrs by Gal4-hybrid reporter gene based Dual-glo luciferase assay; format: cell-based
T1 sequence (whole entry): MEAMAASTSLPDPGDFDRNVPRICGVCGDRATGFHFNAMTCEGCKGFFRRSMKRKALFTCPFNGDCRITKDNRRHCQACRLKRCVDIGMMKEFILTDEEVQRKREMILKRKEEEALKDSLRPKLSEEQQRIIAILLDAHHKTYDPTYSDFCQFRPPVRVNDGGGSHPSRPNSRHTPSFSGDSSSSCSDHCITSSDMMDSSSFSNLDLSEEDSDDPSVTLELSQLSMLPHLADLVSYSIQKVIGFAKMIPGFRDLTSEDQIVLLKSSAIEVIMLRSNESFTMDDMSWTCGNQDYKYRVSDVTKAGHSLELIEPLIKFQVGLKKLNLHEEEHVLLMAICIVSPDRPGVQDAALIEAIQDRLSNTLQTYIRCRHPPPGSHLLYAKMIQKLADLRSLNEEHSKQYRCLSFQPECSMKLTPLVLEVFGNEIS

[6] = molecular target: T2, Nuclear receptor subfamily 4 group A member 2 (Homo sapiens, UniProt P43354); assay: Agonist activity at human Nurr1 LBD transiently transfected in HEK293T cells incubated for 16 hrs by Gal4-hybrid reporter gene based Dual-glo luciferase assay; format: cell-based; conditions: read-out: EC50
T2 sequence (P43354 whole entry, the tested form may be a part): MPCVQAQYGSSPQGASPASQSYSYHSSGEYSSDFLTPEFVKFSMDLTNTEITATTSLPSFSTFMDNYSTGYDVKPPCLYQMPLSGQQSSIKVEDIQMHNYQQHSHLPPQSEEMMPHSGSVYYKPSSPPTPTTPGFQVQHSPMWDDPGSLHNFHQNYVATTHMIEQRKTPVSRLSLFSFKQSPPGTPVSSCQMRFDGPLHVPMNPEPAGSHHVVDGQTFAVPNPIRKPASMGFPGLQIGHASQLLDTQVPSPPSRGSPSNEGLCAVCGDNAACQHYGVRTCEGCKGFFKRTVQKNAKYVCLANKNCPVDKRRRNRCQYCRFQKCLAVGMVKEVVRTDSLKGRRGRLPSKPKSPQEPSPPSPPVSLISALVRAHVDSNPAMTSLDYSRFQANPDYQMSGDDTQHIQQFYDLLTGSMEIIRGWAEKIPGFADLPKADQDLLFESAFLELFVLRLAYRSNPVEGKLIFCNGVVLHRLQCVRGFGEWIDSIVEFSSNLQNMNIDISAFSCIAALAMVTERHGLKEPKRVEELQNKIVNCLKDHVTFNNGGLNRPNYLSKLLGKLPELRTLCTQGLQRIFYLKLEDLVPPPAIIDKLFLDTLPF

[7] = Selectivity ratio for agonist activity at FXR LBD (unknown origin) transiently transfected in HEK293T cells to agonist activity at human NOR-1 LBD transiently transfected in HEK293T cells; format: cell-based
[8] = Selectivity ratio for agonist activity at PPARgamma LBD (unknown origin) transiently transfected in HEK293T cells to agonist activity at human Nurr1 LBD transiently transfected in HEK293T cells; format: cell-based
[9] = molecular target: T3, Nuclear receptor subfamily 4immunitygroup A member 1 (Homo sapiens, UniProt P22736); assay: Agonist activity at human Nur77 LBD transiently transfected in HEK293T cells assessed as maximal activation incubated for 16 hrs by Gal4-hybrid reporter gene based Dual-glo luciferase assay relative to control; format: cell-based; conditions: filed as agonist
T3 sequence (P22736 whole entry, the tested form may be a part): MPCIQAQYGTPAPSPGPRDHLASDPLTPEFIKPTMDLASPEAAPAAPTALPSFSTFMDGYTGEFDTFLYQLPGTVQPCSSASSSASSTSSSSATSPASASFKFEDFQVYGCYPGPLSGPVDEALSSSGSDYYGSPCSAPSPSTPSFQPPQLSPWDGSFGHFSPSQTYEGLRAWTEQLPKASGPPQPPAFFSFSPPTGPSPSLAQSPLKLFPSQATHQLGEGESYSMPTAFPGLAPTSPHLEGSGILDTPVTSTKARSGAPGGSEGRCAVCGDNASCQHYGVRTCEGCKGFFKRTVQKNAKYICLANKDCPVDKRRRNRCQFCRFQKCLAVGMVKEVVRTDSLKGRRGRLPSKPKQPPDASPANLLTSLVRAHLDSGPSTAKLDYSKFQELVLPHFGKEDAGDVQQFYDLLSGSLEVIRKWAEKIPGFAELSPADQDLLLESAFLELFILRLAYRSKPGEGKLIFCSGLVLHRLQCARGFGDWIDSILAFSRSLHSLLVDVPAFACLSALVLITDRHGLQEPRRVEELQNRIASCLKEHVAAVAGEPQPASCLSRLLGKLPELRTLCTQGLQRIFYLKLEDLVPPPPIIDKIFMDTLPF

[10] = molecular target: T3, Nuclear receptor subfamily 4immunitygroup A member 1; assay: Agonist activity at human Nur77 LBD transiently transfected in HEK293T cells incubated for 16 hrs by Gal4-hybrid reporter gene based Dual-glo luciferase assay; format: cell-based
[11] = Selectivity ratio for agonist activity at RARalpha LBD (unknown origin) transiently transfected in HEK293T cells to agonist activity at human Nur77 LBD transiently transfected in HEK293T cells; format: cell-based
[12] = Selectivity ratio for agonist activity at PPARgamma LBD (unknown origin) transiently transfected in HEK293T cells to agonist activity at human Nur77 LBD transiently transfected in HEK293T cells; format: cell-based
[13] = molecular target: T2, Nuclear receptor subfamily 4 group A member 2; assay: Agonist activity at full length human Nurr1 transiently transfected in HEK293T cells co-transfected with pFR-Luc-NBRE incubated for 16 hrs by Gal4-hybrid reporter gene based Dual-glo luciferase assay; format: cell-based
[14] = molecular target: T2, Nuclear receptor subfamily 4 group A member 2; conditions: filed as agonist, dose 100.0 µM
[15] = Selectivity ratio for agonist activity at PPARdelta LBD (unknown origin) transiently transfected in HEK293T cells to agonist activity at human Nur77 LBD transiently transfected in HEK293T cells; format: cell-based
[16] = Selectivity ratio for agonist activity at PPARdelta LBD (unknown origin) transiently transfected in HEK293T cells to agonist activity at human NOR-1 LBD transiently transfected in HEK293T cells; format: cell-based
[17] = molecular target: T4, Peroxisome proliferator-activated receptor alpha (Homo sapiens) (UniProt Q07869); assay: Agonist activity at PPARalpha LBD (unknown origin) transiently transfected in HEK293T cells at 1 uM incubated for 16 hrs by Gal4-hybrid reporter gene based Dual-glo luciferase assay; format: cell-based
T4 sequence (whole entry): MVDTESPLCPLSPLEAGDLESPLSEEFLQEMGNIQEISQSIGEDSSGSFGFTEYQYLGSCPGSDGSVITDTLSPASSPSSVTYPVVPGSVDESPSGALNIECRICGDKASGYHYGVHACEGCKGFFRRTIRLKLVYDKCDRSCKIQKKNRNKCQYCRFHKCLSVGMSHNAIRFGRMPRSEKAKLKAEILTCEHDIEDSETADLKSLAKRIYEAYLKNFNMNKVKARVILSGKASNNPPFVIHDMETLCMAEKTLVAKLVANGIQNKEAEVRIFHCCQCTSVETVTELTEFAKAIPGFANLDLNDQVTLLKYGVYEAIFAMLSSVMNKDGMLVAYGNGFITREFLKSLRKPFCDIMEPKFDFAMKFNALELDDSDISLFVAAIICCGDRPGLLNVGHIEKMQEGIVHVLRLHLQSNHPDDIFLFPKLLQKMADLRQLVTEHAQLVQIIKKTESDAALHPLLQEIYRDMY

[18] = Selectivity ratio for agonist activity at VDR LBD (unknown origin) transiently transfected in HEK293T cells to agonist activity at human NOR-1 LBD transiently transfected in HEK293T cells; format: cell-based
[19] = Selectivity ratio for agonist activity at PPARalpha LBD (unknown origin) transiently transfected in HEK293T cells to agonist activity at human Nurr1 LBD transiently transfected in HEK293T cells; format: cell-based
[20] = Selectivity ratio for agonist activity at PPARalpha LBD (unknown origin) transiently transfected in HEK293T cells to agonist activity at human Nur77 LBD transiently transfected in HEK293T cells; format: cell-based
[21] = Selectivity ratio for agonist activity at RXRalpha LBD (unknown origin) transiently transfected in HEK293T cells to agonist activity at human Nur77 LBD transiently transfected in HEK293T cells; format: cell-based

EC50 [2]: 70 nM
Activity [5]: inactive
EC50 [6]: 120 nM
Emax [9]: 163%
EC50 [10]: 140 nM
EC50 [13]: 13 nM
-TdeltaS [14]: -5.2 kcal/mol
Activity [17]: inactive
SMILES: CC(C)(C)c1ccc(COc2cccc(C(=O)O)c2)cc1
Selectivity ratio [1]: > 30
Selectivity ratio [3]: > 30
Selectivity ratio [4]: > 30
Selectivity ratio [7]: > 30
Selectivity ratio [8]: > 30
Selectivity ratio [11]: > 30
Selectivity ratio [12]: > 30
Selectivity ratio [15]: > 30
Selectivity ratio [16]: > 30
Selectivity ratio [18]: > 30
Selectivity ratio [19]: > 30
Selectivity ratio [20]: > 30
Selectivity ratio [21]: > 30
